{"source": "patent US20250248393A1", "about": "“METHOD OF RELEASING A SEMIOCHEMICAL IN THE ENVIRONEMENT BY PASSIVE DIFFUSION, SYSTEM AND MEANS, ESPECIALLY STICKS, TO THIS END, AND USES THEREOF” (SIGNS, priority 2024, published 2025)", "type_in_all_cases": "physicochemical", "key": {"[1]": {"test": "F3P PCDS indirect diffusion, pheromone remaining in solution (GC/FID)", "protocol": "For this study, three diffusers each containing 40 mL of product and 6 capillaries were prepared and diffused. Once a week, on Wednesdays, the amount of pheromone remaining in the solution was monitored by gas chromatography analysis coupled to a flame ionization detector (GC/FID) until no liquid remained. The percentage of pheromone was measured weekly.\nNext, the percentage of pheromone was checked by external calibration using a GC/FID calibration range.\nAnalyses were carried out by gas chromatography coupled to a flame ionization detector. The instrument was a Shimadzu GC 2025® with an AOC20i® autosampler. Separation was performed on an Agilent DB-FFAP® column (30 m×0.25 mm×0.25 μm, stationary phase: nitroterephthalic acid-modified polyethylene glycol). The temperature of the gas chromatography oven was initially maintained at 140° C. for 2 minutes, then increased at 10° C./min to 250° C. and left at this temperature for 3 minutes. The carrier gas was helium at 1 mL/min. Analyses were performed in split mode using a split/splitless injector (temperature: 250° C., split: 1:50).\nThe detector used was a flame ionization detector. The detector temperature was 250° C. with an air flow rate of 400 mL/min, hydrogen 40 mL/min and nitrogen 30 mL/min.\nFor this purpose, a calibration range was prepared for each analysis. […]"}, "[2]": {"test": "DAP PCDS direct diffusion (SPME-GC/MS)", "details": "DAP/PCDS diffuser, 40 mL, 6 capillaries", "protocol": "Three diffusers, each containing 40 mL of solution and 6 capillaries, were prepared and diffused. The first points were measured at T=1d, T=2, and T=3d, then every Monday, Wednesday and Friday of each study week until the diffusers no longer contained any solution. To measure the pheromone released into the air at each study time, the diffuser is first weighed (with the sticks) to measure mass loss, then placed in an enclosed area (in this case, an upside-down aquarium) containing a SPME fiber, as shown in FIG. 24.\nThe fiber is left to diffuse above the diffuser for 2 hours (a time determined in a previous method development as the optimum time for molecules to adsorb to the phase), then analyzed using the gas chromatography/mass spectrometry (GC/MS) technique.\nThree diffusers were studied for greater accuracy. The chromatograms obtained are reprocessed using GC/MS Solution software.\nFor each chromatographic peak, the area is recorded using GC/MS Solution software, then entered into an Excel spreadsheet. Diffusion curves giving the area of the chromatographic peak corresponding to each active ingredient as a function of time are then plotted.\nAnalyses were carried out by gas chromatography/mass spectrometry (GC/MS). The instrument was a Shimadzu GCMS QP2010SE® equipped with an AOC 6000® autosampler. Separation was carried out on a ZB-FFAP® column (30 m×0.25 mm×0.25 μm, stationary phase: nitroterephthalic acid-modified polyethylene glycol) supplied by Phenomenex. The furnace temperature was initially set at 80° C. for 1 minute, then increased at 10° C./min to 240° C. and maintained at this temperature for 2 minutes. The carrier gas was helium at a flow rate of 1 mL/min. Analysis time is 19 minutes.\nThe injector is a split/splitless injector used in split mode (temperature: 250° C., split: 50:1). The SPME fiber was injected directly into the injector and left to desorb for 15 minutes.\nThe separated molecules were detected using a mass spectrometer equipped with an electron impact source (temperature: 200° C.). The analyzer is a simple quadrupole. The interface temperature is 250° C. Data were acquired in FASST mode (Fast automated SCAN/SIM type), i.e. part of the analysis was performed by scanning all ions (SCAN) and part by selecting specific ions (SIM). Target molecules were thus analyzed using ion selection."}, "[3]": {"test": "DAP quantification at the top of the capillaries (GC/FID)", "details": "top of the rods", "protocol": "For this study, three diffusers containing 40 mL of solution and 6 capillaries were used for diffusion. Each week, a diffuser was weighed and the pheromone contained in the liquid solution and on the top of the capillaries was quantified by gas chromatography with flame ionization detector (GC/FID). To quantify the pheromone at the top of the capillaries, approximately 1 cm of the top of the capillaries is cut off with scissors and 0.1 g of the capillary tops is placed in a 25 mL volumetric flask. Acetone is then added up to the beginning of the neck, and the flask is placed in an ultrasonic bath for one hour. Acetone is then topped up to volume, and an aliquot of solution is taken and filtered through a syringe filter for GC/FID analysis. DAP is then quantified by external calibration. For this, five solutions with concentrations ranging from 50% to 150% of the target value (100% being the target value) are prepared to cover a wide concentration range (protocol for preparing the standard range not shown but available). Analyses were carried out using gas chromatography with a flame ionization detector. The instrument was a Shimadzu GC 2025AF® equipped with an AOC20i® autosampler. Separation was carried out on a DB-WAX UI® column (20 m×0.18 mm×0.30 μm, polyethylene glycol (PEG) stationary phase) supplied by Agilent. The oven temperature was initially set at 90° C. and held for 2 minutes, then increased at 20° C./min to 160° C. and held at this temperature for 5 minutes. Finally, the temperature was increased at 20° C./min to 220° C. and held at this temperature for 5 minutes. The carrier gas is helium at a flow rate of 1 mL/min. Analysis time was thus 18.5 minutes. The injector is a split/splitless injector used in split mode (temperature: 230° C., split: 50:1, injected quantity: 1 μL). The detector is a flame ionization detector (FID). Its temperature is 240° C., the hydrogen flow rate is 40 mL/min and the air flow rate is 400 mL/min. A cleaning gas, dinitrogen, is also present at a flow rate of 30 mL/min."}, "[4]": {"test": "Ratios of molecules diffused through the sticks over time", "protocol": "Furthermore, as small molecules diffuse more, it happens that they lose intensity over the course of the study, so the ratios are different 24 hours after immersing the sticks in the liquid and 21 days later. Here are the ratios for each pheromone studied at the start of the study and at the end."}}}
{"smiles": "CCCCCCCCCCCC(=O)OC", "note": "[methyl laurate, methyl dodecanoate]", "values": [{"measurement": "quantities found in the solution", "setting": "[1]", "value": "very low"}, {"measurement": "direct diffusion over time", "setting": "[2]", "value": "decreases slightly over time"}, {"measurement": "Proportion of methyl laurate in the DAP pheromone", "setting": "[3]; T = 6 j (instead of 2%)", "value": "laurate: 1.2%"}, {"measurement": "Proportion of methyl laurate in the DAP pheromone", "setting": "[3]; T = 22 j (instead of 2%)", "value": "laurate: 0.4%"}, {"measurement": "Proportion of methyl laurate in the DAP pheromone", "setting": "[3]; T = 13 d (instead of 2%)", "value": "laurate: 0.5%"}, {"measurement": "ratio of molecules diffused through the sticks", "setting": "[4]; DAP, 24 h after immersion of sticks", "value": "51 % (w/w)"}, {"measurement": "ratio of molecules diffused through the sticks", "setting": "[4]; DAP, 21 days after immersion of sticks (empty tank)", "value": "37 % (w/w)"}, {"measurement": "ratio of molecules diffused through the sticks", "setting": "[4]; F3P, 24 h after immersion of the sticks", "value": "20 % (w/w)"}, {"measurement": "ratio of molecules diffused through the sticks", "setting": "[4]; F3P, 21 days after immersion of sticks (empty tank)", "value": "17.5 % (w/w)"}]}
